Data on four compounds can be found in patent US20230172940A1, “METHODS OF EXTENDING LIFESPAN BY ADMINISTERING FERROPTOSIS INHIBITORS” (COLLABORATIVE MEDICINAL DEVELOPMENT, LLC, priority 2020, published 2023).

One assay relates to C. elegans. Particulars: iron chelators, literature reports; cited from earlier work.
The next assay deals with OP50 E. coli. The assay is described as follows: Bacterial growth assay (OD600). In kind it is cell-based, Escherichia coli. Particulars: 50 or 100 μg/mL; after 12 hours, 37° C. How it is done:
The effects of test compounds on growth of the OP50 E. coli feed was assayed using optical density at 600 nm (OD600). Using standard microtitre plates, replicate wells of 200 μL of sterile Luria broth were inoculated with 2 μL of an overnight OP50 culture in addition to the stated final concentrations of ampicillin (Amp), Lip-1 and SIH. OD600 measures were taken after 12 hours in an EnSpire (PerkinElmer) spectrophotometric plate reader preset to 37° C., with 30 sec of 200 rpm orbital shaking every 10 minutes.
Data was averaged across duplicate experiments, each with eight replicate wells per treatment where a baseline of Luria broth without an inoculate was subtracted.

In a further assay the test system is C. elegans strain TJ1060. As to the kind of experiment: Lifespan determination. In kind it is in vivo, Caenorhabditis elegans. Particulars: alternative ferroptosis inhibitor. How it is done:
Lifespan was measured using established protocols. SIH was dissolved in neat dimethyl sulfoxide (DMSO; Sigma-Aldrich) then added to the molten NGM at 55° C. (to a final concentration of 250 μM SIH in 0.5% v/v DMSO). Lip-1 was dissolved in neat DMSO then added to the molten NGM at 55° C. (to a final concentration of 200 μM Lip-1 in 0.5% v/v DMSO). Media containing equivalent vehicle alone (0.5% v/v DMSO) was used for comparison. Standard overnight culture of the Escherichia coli (E. coli) strain OP50 was used as the food source.
Lifespan data was collected at 25 (±1) ° C. using the temperature sensitive-sterile strain TJ1060 [spe-9(hc88); fer-15(b26)]. A synchronous population was obtained by transferring egg-laying adults to fresh plates at 16° C. for 2-3 hours. The adults were removed and the plates with eggs then transferred to 25° C. to ensure sterility. After 48 hours at 25° C., when worms were at the late L4/young adult stage, 25-35 nematodes were transferred to fresh plates containing either vehicle control, 250 μM SIH, or 200 μM Lip-1. All plates were coded to allowing blinding of the experimenter to the treatment regime during scoring. Nematodes were scored for survival at one to three-day intervals and transferred to freshly prepared plates as needed (2-5 days).
It is well documented that differences are observed between independent measures of lifespan, with micro-environmental factors such as minor temperature fluctuations potentially resulting differences in median and maximum lifespan between replicates. After determining the optimal doses of 250 μM SIH and 200 μM Lip-1, respectively, cohorts of nematodes were compared in 8 independent replicates. As the number of worms measured is known to influence the likelihood of accurately observing differences in lifespan, the starting populations for all treatments within experiments were in excess of 70 individuals.

For `O=C(O)CN(CCN(CC(=O)O)CC(=O)O)CC(=O)O.[Ca]` [CaEDTA, calcium-ethylenediaminetetraacetic acid], the “effect on C. elegans lifespan as reported” value in the assay on C. elegans was “minor (undisclosed) increase in lifespan”.

As to `CC1(C)S[C@@H]2[C@H](NC(=O)[C@H](N)c3ccccc3)C(=O)N2[C@H]1C(=O)O` [ampicillin], the “growth of OP50 E. coli (OD600)” value with OP50 E. coli is on record as “completely suppressed bacterial growth”.

Turning to `CCOC(=O)c1ccc(NC2CCCCC2)c(N)c1` [ferrostatin], the median lifespan extension result in the assay on C. elegans strain TJ1060 is listed as “significant but more modest median lifespan extension”.

With `Cc1c(O)c(=O)ccn1C` [deferiprone], the “effect on C. elegans lifespan as reported” value with C. elegans was “not to impact C. elegans lifespan”.
